The values below come from patent US20230031406A1, “COMPOUNDS AND COMPOSITIONS FOR TREATING CONDITIONS ASSOCIATED WITH NLRP ACTIVITY” (Novartis AG, priority 2018, published 2023).

Read-outs that look alike come from different tables or passages of the source.

The test system of this assay is PMA-differentiated THP-1 cells. Nature of the assay: IL-1β production in PMA-differentiated THP-1 cells stimulated with gramicidin (hTHP-1 assay containing 2% fetal bovine serum; Procedures 1 and 2). Format: cell-based, human. Particulars: 2% fetal bovine serum. The procedure, abridged:
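PMA 20 ng/ml 16-18 h → trypsinise → 50,000 cells/well, RPMI/2% FBS; cpd 1 h (11-pt, 100–0.0017 μM; DMSO 0.37%); gramicidin 5 μM, 2 h; spin; supernatant IL-1β via HTRF.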

Where [1] appears, read: Homo sapiens, THP-1, Table B2, numeric bounds, read-out: hTHP-1 IC50.
The mark [2] stands for this setting: Homo sapiens, THP-1, Table B2, class symbols, read-out: hTHP-1 IC50.
Setting [3] is: Table B1, class symbols, read-out: Average IC50 of compounds in hTHP-1 assay: hTHP-1 IC50.
Where [4] appears, read: Table B2, class symbols, read-out: hTHP-1 IC50.
The mark [5] stands for this setting: Table B4, class symbols, read-out: hTHP-1 IC50.

For `C[C@@H]1CCc2c1nc1c(c2NC(=O)N=[S@@](N)(=O)c2cnc(C(C)(C)O)s2)CCC1` [Compound 162bb, (R,R)-2-(2-hydroxypropan-2-yl)-N′-((3-methyl-1,2,3,5,6,7-hexahydrodicyclo-penta[b,e]pyridin-8-yl)carbamoyl)thiazole-5-sulfonimidamide], the IC50 (Homo sapiens, THP-1, Table B1, class symbols, read-out: Average IC50 of compounds in hTHP-1 assay: hTHP-1 IC50) fell in the range of 40 to 200 nM.

Consider `CCOC(=O)c1nc2c(c(NC(=O)N=S(N)(=O)c3cnc(C(C)(C)O)s3)c1C)CCC2` (stereo not shown) [Compound 706], for which the IC50 under setting [1] was more than 30000 nM.

For the compound `CC(C)(O)c1cc(F)c(S(N)(=O)=NC(=O)Nc2c3c(nc(C4CC4)c2C2CC2)CCC3)s1` (single isomer, unassigned) [Example 697, (R) or (S)-N′-((2,3-dicyclopropyl-6,7-dihydro-5H-cyclopenta[b]pyridin-4-yl)carbamoyl)-3-fluoro-5-(2-hydroxypropan-2-yl) thiophene-2-sulfonimidamide], under “Table B3, hTHP-1 assay, class symbols, read-out: IC50”, the half-maximal inhibitory concentration (IC50) is 40 to 200 nM.

For the compound `C[C@@H]1CCc2c1nc1c(c2NC(=O)N=S(N)(=O)c2sc(CN(C)C)cc2F)CCC1` (stereo partly drawn) [Compound 636c, 5-((Dimethylamino)methyl)-3-fluoro-N′-(((R)-3-methyl-1,2,3,5,6,7-hexahydrodicyclopenta[b,e]pyridin-8-yl)carbamoyl)thiophene-2-sulfonimidamide], the IC50 under setting [2] was in the range of 200 to 1000 nM.

On to `CC(C)(O)c1ncc(S(N)(=O)=NC(=O)Nc2c3c(nc4c2CCC4F)CCC3)s1` (single isomer, unassigned) [Compound 183a, (R,R) or (R,S)-N′-((3-fluoro-1,2,3,5,6,7-hexahydrodicyclo-penta[b,e]pyridin-8-yl)carbamoyl)-2-(2-hydroxypropan-2-yl)thiazole-5-sulfonimidamide], for which the IC50 under setting [3] is 1000 to 5000 nM.

For the compound `Cc1c(C(F)(F)F)nc2c(c1NC(=O)N=S(N)(=O)c1cnc(C(C)(O)CO)s1)CCC2` (stereo not shown) [Compound 605, 2-(1,2-Dihydroxypropan-2-yl)-N′-((3-methyl-2-(trifluoromethyl)-6,7-dihydro-5H-cyclopenta[b]pyridin-4-yl)cabamoyl)thiazole-5-sulfonimidamide], under setting [4], the 50% inhibitory concentration (IC50) is 200 to 1000 nM.

On to `CC(C)n1cc(S(N)(=O)=NC(=O)Nc2c3c(nc4c2CCC4(C)C)CCC3)c(CO)n1` (single isomer, unassigned) [Compound 653b, (S) or (R)-N′-((3,3-dimethyl-1,2,3,5,6,7-hexahydrodicyclopenta [b,e]pyridin-8-yl)carbamoyl)-3-(hydroxymethyl)-1-isopropyl-1H-pyrazole-4-sulfonimidamide], for which the half-inhibitory concentration (IC50) under setting [1] is more than 30000 nM.

For `CC(C)(O)c1ncc(S(N)(=O)=NC(=O)Nc2c3c(nc4c2CCC4CF)CCC3)s1` (stereo not shown) [Compound 702, N′-((3-(fluoromethyl)-1,2,3,5,6,7-hexahydrodicyclopenta[b,e]pyridin-8-yl)carbamoyl)-2-(2-hydroxypropan-2-yl)thiazole-5-sulfonimidamide], the IC50 under setting [2] lay within 1000 to 5000 nM.

For the compound `CC1(C)CCc2c1nc1c(c2NC(=O)N=S(N)(=O)c2sc(C(C)(O)CO)cc2F)CCC1` (stereo not shown) [Compound 640, 5-(1,2-Dihydroxypropan-2-yl)-N′-((3,3-dimethyl-1,2,3,5,6,7-hexahydrodicyclopenta[b,e]pyridin-8-yl)carbamoyl)-3-fluorothiophene-2-sulfonimidamide], under setting [4], the concentration for half-maximal inhibition (IC50) was 200 to 1000 nM.

Take `Cc1c(C(F)(F)F)nc2c(c1NC(=O)N=S(N)(=O)c1nn(C(C)C)cc1F)CCC2` (single isomer, unassigned) [Example 790, (S) or (R)-4-fluoro-1-isopropyl-N′-((3-methyl-2-(trifluoromethyl)-6,7-dihydro-5H-cyclo-penta [b]pyridin-4-yl)carbamoyl)-1H-pyrazole-3-sulfonimidamide]: under setting [5], the concentration for half-maximal inhibition (IC50) is 5000 to 30000 nM.

Regarding `CC1(C)CCc2c1nc1c(c2NC(=O)N=S(N)(=O)c2ccn(C(F)F)n2)CCC1` (single isomer, unassigned) [Compound 122b, (S) or (R)-1-(difluoromethyl)-N′-((3,3-dimethyl-1,2,3,5,6,7-hexahydrodicyclo-penta[b,e]pyridin-8-yl)carbamoyl)-1H-pyrazole-3-sulfonimidamide], the 50% inhibitory concentration (IC50) under setting [3] lay in the range of 5000 to 30000 nM.

On to `CCn1cc(F)c(S(N)(=O)=NC(=O)Nc2c3c(nc(C(F)(F)F)c2-c2cccc(F)c2)CCC3)n1` (single isomer, unassigned) [Example 782, (S) or (R)-1-ethyl-4-fluoro-N′-((3-(3-fluorophenyl)-2-(trifluoromethyl)-6,7-dihydro-5H-cyclopenta[b]pyridin-4-yl)carbamoyl)-1H-pyrazole-3-sulfonimidamide], for which the concentration for half-maximal inhibition (IC50) under setting [5] was in the range of 200 to 1000 nM.

On to `NS(=O)(=NC(=O)Nc1c2c(nc(C(F)(F)F)c1C1CC1)CCC2)c1nn(C(F)F)cc1F` (single isomer, unassigned) [Example 776, (S) or (R)-N′-((3-cyclopropyl-2-(trifluoromethyl)-6,7-dihydro-5H-cyclopenta[b]pyridin-4-yl)carbamoyl)-1-(difluoromethyl)-4-fluoro-1H-pyrazole-3-sulfonimidamide], for which the half-inhibitory concentration (IC50) under setting [5] lay within 5000 to 30000 nM.

As to `CC(C)(O)c1cnc(S(N)(=O)=NC(=O)Nc2c3c(nc4c2CCC4O)CCC3)s1` (stereo not shown) [Example 635, N′-((3-hydroxy-1,2,3,5,6,7-hexahydrodicyclopenta[b,e]pyridin-8-yl)carbamoyl)-5-(2-hydroxypropan-2-yl)thiazole-2-sulfonimidamide], the half-inhibitory concentration (IC50) (Homo sapiens, THP-1, Table B3, hTHP-1 assay, numeric values, read-out: IC50) is more than 30000 nM.

`CC(C)n1nc(S(N)(=O)=NC(=O)Nc2c3c(nc4c2CCC42CC2)CCC3)cc1CO` (single isomer, unassigned) [Example 641, (R) or (S)-5-(hydroxymethyl)-1-isopropyl-N′-((1′,5′,6′,7′-tetrahydro-2′H-spiro[cyclopropane-1,3′-dicyclopenta[b,e]pyridin]-8′-yl)carbamoyl)-1H-pyrazole-3-sulfonimidamide]: for the setting “Homo sapiens, THP-1, Table B3, hTHP-1 assay, class symbols, read-out: IC50”, the half-maximal inhibitory concentration (IC50) is 1000 to 5000 nM.

With `CC(C)(O)c1cc(F)c([S@@](N)(=O)=NC(=O)Nc2c3c(nc(C4CC4)c2C2CC2)CCC3)s1` [Compound 727a], the IC50 under setting [2] was in the range of 1000 to 5000 nM.

Regarding `CC(C)(O)c1cnc(S(N)(=O)=NC(=O)Nc2c3c(nc4c2CCC4(C)C)CCC3)s1` (single isomer, unassigned) [Compound 686a, (S) or (R)-N′-((3,3-dimethyl-1,2,3,5,6,7-hexahydrodicyclopenta [b,e]pyridin-8-yl)carbamoyl)-5-(2-hydroxypropan-2-yl)thiazole-2-sulfonimidamide], the IC50 under setting [4] was in the range of 200 to 1000 nM.

As to `CC(C)n1ccc(S(N)(=O)=NC(=O)Nc2c3c(nc4c2CCC42CC2)CCC3)n1` (single isomer, unassigned) [Compound 172b, (R) or (S)-1-Isopropyl-N′-((1′,5′,6′,7′-tetrahydro-2′H-spiro[cyclopropane-1,3′-dicyclopenta[b,e]pyridin]-8′-yl)carbamoyl)-1H-pyrazole-3-sulfonimidamide], the IC50 under setting [3] fell in the range of 200 to 1000 nM.

Take `CCn1ccc(S(N)(=O)=NC(=O)Nc2c3c(nc4c2CC[C@H]4C)CCC3)n1` (stereo partly drawn) [Compound 634, 1-Ethyl-N′-(((R)-3-methyl-1,2,3,5,6,7-hexahydrodicyclopenta[b,e]pyridin-8-yl)carbamoyl)-1H-pyrazole-3-sulfonimidamide]: under setting [2], the IC50 was in the range of 40 to 200 nM.

`Cc1nc2c(c(NC(=O)N=S(N)(=O)c3cnc(C(C)(O)CO)s3)c1C(C)C)CCC2` (stereo not shown) [Compound 627, 2-(1,2-Dihydroxypropan-2-yl)-N′-((3-isopropyl-2-methyl-6,7-dihydro-5H-cyclopenta[b]pyridin-4-yl)carbamoyl)thiazole-5-sulfonimidamide]: the concentration for half-maximal inhibition (IC50) under setting [2] lay in the range of 200 to 1000 nM.

In the case of `COC(C)(C)c1ncc(S(N)(=O)=NC(=O)Nc2c3c(nc4c2CCC4)CCC3)s1` (stereo not shown) [Compound 693, N′-((1,2,3,5,6,7-hexahydrodicyclopenta[b,e]pyridin-8-yl)carbamoyl)-2-(2-methoxypropan-2-yl)thiazole-5-sulfonimidamide], under setting [2], the IC50 lay in the range of 1000 to 5000 nM.

Take `CCC1CCc2c1nc1c(c2NC(=O)N=S(N)(=O)c2ccn(C(F)F)n2)CCC1` (single isomer, unassigned) [Compound 668a, (S, S) or (S, R) or (R, S) or (R, R)-1-(Difluoromethyl)-N′-((3-ethyl-1,2,3,5,6,7-hexahydrodicyclopenta [b,e]pyridin-8-yl)carbamoyl)-1H-pyrazole-3-sulfonimidamide]: the IC50 under setting [1] is more than 30000 nM.

For `Cc1sc(S(N)(=O)=NC(=O)Nc2c3c(nc4c2CCC4(C)C)CCC3)cc1C(C)(C)O` (single isomer, unassigned) [Compound 169b, (R) or (S)-N′-((3,3-dimethyl-1,2,3,5,6,7-hexahydro-dicyclopenta[b,e]pyridin-8-yl)carbamoyl)-4-(2-hydroxypropan-2-yl)-5-mehtylthiophene-2-sulfonimidamide], the IC50 under setting [3] is 40 to 200 nM.

As to `CC(C)(O)c1cc(Br)c(S(N)(=O)=NC(=O)Nc2c3c(nc4c2CCC4)CCC3)s1` (stereo not shown) [Compound 690, 3-Bromo-N′-((1,2,3,5,6,7-hexahydrodicyclopenta[b,e]pyridin-8-yl)carbamoyl)-5-(2-hydroxypropan-2-yl)thiophene-2-sulfonimidamide], the 50% inhibitory concentration (IC50) under setting [2] was 1000 to 5000 nM.

In the case of `CNS(=O)(=O)c1cccc(S(N)(=O)=NC(=O)Nc2c3c(nc4c2CCC4(C)C)CCC3)c1` (stereo not shown) [Compound 735, 3-(N′-((3,3-dimethyl-1,2,3,5,6,7-hexahydrodicyclopenta [b,e]pyridin-8-yl)carbamoyl)sulfamidimidoyl)-N-methylbenzenesulfonamide], the IC50 under setting [2] fell in the range of 1000 to 5000 nM.
